From patent US5639887A, “MDR reversal agents” (priority 1995, dated 1997)
Structures can show the parent of a compound that is named as a salt.

Assays:
[1] = test system: vincristine resistant murine leukemia P388/VCR; test: In vivo evaluation of MDR-1 reversal agents against vincristine resistant murine leukemia P388/VCR implanted IP in CDF1 mice; conditions: days 1-7, IP; for % ILS: vs vincristine alone
Method: Tumor cell ascites are harvested 5-7 days later. For drug testing, groups of 10-15 CDF1 mice (DBA/2×Balb/cF1 hybrids; Charles River Laboratories, Inc) are injected IP with 0.5 ml of diluted ascitic fluid containing 1×10^6 viable P388/VCR tumor cells. […] Drugs are administered once daily, by the IP, intravenous (IV) or oral route, starting one day after tumor implantation and using a variety of treatment schedules. Mice are weighed periodically, survival is recorded for 30 days post tumor implantation, and Mean survival times are calculated for all groups of mice. Statistical analysis of Mean survival times is carried out using the Student t-test.

[2] = test system: human epidermoid carcinoma KB/8.5; test: In vivo evaluation of MDR-1 reversal agents against human epidermoid carcinoma KB/8.5 implanted SC in athymic nude mice; design: species or system human (tumor in athymic nude mice)
Method: The multiple drug resistant human epidermoid carcinoma KB/8.5 is propagated in medium containing colchicine (10 nanograms/ml) to maintain drug resistance. Colchicine is removed from the medium, for two cell passages, prior to subcutaneous (SC) implant of 8×10^6 KB/8.5 tumor cells into athymic "nude" mice (Harlan Sprague Dawley). […] Individual mouse tumor mass and mean tumor mass for each treatment group is determined on Day +14 and Day +21 of the test period. For each treatment group, the Relative Tumor Growth, RTG, is calculated as follows: [formula]
Statistical analysis of Log Relative Tumor Growth is carried out using the Student t-test. Transformation of the data from absolute mean tumor mass (mgs tumor mass) to Log Relative Tumor Growth prior to statistical analysis has two beneficial effects:
1) it corrects the data for differences in mean tumor mass of the different treatment groups at the start of the test period (Day 0); and
2) the Log transformation of the data more adequately reflects the exponential growth pattern of the SC tumors and makes the use of the Student t-test more appropriate.

[3] = vincristine 0.2 + compound 6.3 mg/kg
[4] = vincristine 0.2 + compound 25 mg/kg
[5] = vincristine 0.2 + compound 50 mg/kg
[6] = doxorubicin 8 mg/kg IV + compound 25 mg/kg/dose SC at -2 h and +2 h
[7] = doxorubicin 8 mg/kg IV + compound 50 mg/kg/dose SC at -2 h and +2 h
[8] = doxorubicin 8 mg/kg IV + compound 100 mg/kg/dose SC at -2 h and +2 h
[9] = doxorubicin 8 mg/kg IV + compound 150 mg/kg/dose SC at -2 h and +2 h
[10] = doxorubicin 8 mg/kg IV + compound […] SC at -2 h and +2 h
[11] = doxorubicin 8 mg/kg IV + compound 200 mg/kg/dose SC at -2 h and +2 h
[12] = doxorubicin 8 mg/kg IV + compound 200 mg/kg/dose SC x2

| SMILES | Relative Tumor Growth Day 21 [2, 6] | Relative Tumor Growth Day 21 [2, 7] | Relative Tumor Growth Day 21 [2, 8] | Relative Tumor Growth Day 21 [2, 10] | Relative Tumor Growth Day 21 [2, 11] | also measured |
| --- | --- | --- | --- | --- | --- | --- |
| COc1ccc(C(C#N)(CCN2CCc3cc(OC)c(OC)cc3C2)Sc2ccc(C)cc2)cc1OC (stereo not drawn) [Example 9, α-(3,4-Dimethoxyphenyl)-3,4-dihydro-6,7-dimethoxy-α-[(4-methylphenyl)thio]-2(1H]-isoquinolinebutanenitrile] | – | – | – | – | – | MST [1, 3]: 16.4 days; % ILS [1, 3]: +10% |
| COC(=O)C(CCCN1CCc2cc(OC)c(OC)cc2C1)(Sc1ccc(C)cc1)c1ccc(OC)c(OC)c1 (stereo not drawn) [Example 12, α-(3,4-Dimethoxyphenyl)-3,4-dihydro-6,7-dimethoxy-α-[(4-methylphenyl)thio]-2(1H)-isoquinolinepentanoic acid methyl ester] | – | – | – | – | – | MST [1, 4]: 16.5 days; MST [1, 5]: 16.7 days; % ILS [1, 4]: +9%; % ILS [1, 5]: +11% |
| COc1ccc(C(C#N)(CCCCCN2CCc3ccccc3C2)Sc2ccc(C)cc2)cc1OC (stereo not drawn) [Example 16, α-(3,4-Dimethoxyphenyl)-3,4-dihydro-α-[(4-methylphenyl)thio]-2(1H)-isoquinoline-2-heptanenitrile] | – | – | – | – | – | MST [1, 4]: 16.8 days; % ILS [1, 4]: +11% |
| COc1ccc(C(C#N)(CCCCCCCCN2CCc3cc(OC)c(OC)cc3C2)Sc2ccc(C)cc2)cc1OC (stereo not drawn) [Example 20, α-(3,4-Dimethoxyphenyl]-3,4-dihydro-6,7-dimethoxy-α-[(4-methylphenyl)thio]-2(1H)-isoquinolinedecanenitrile] | – | – | – | – | – | MST [1, 3]: 13.5 days; % ILS [1, 3]: +8% |
| COc1ccc(C(C#N)(CCCCCN2Cc3cc(OC)c(OC)cc3C2)Sc2ccc(C)cc2)cc1OC.Cl (stereo not drawn) [Example 27, α-(3,4-Dimethoxyphenyl)-1,3-dihydro-5,6-dimethoxy-α-[(4-methylphenyl)thio]-2H-isoindole-2-heptanenitrile hydrochloride] | 10.30 | 9.55 | 6.39 | 9.66 | – | Relative Tumor Growth Day 14 [2, 9]: Toxic; Relative Tumor Growth Day 21 [2, 9]: Toxic |
| COc1ccc(C(C#N)(CCCCCN2CCc3cc(OC)c(OCCCl)cc3C2)Sc2ccc(C)cc2)cc1OC (stereo not drawn) [Example 32, 7-(2-Chloroethoxy)-α-(3,4-dimethoxyphenyl)-3,4-dihydro 6-methoxy-α-[(4-methylphenyl)thio]-2(1H)-isoquinoline heptanenitrile] | 11.30 | – | – | 19.93 | – | – |
| COc1ccc(C(CCCCCN2CCc3cc4c(cc3C2)OCO4)Sc2ccc(C)cc2)cc1OC (stereo not drawn) [Example 47] | 9.73 | 16.54 | 10.09 | 17.53 | 11.04 | – |
| COc1ccc(C(CCCCCCN2Cc3cc(OC)c(OC)cc3C2)Sc2ccc(C)cc2)cc1OC (stereo not drawn) [Example 49, 2-[7-(3,4-Dimethoxyphenyl]-7-[(4-methylphenyl]thio]-beptyl]-2,3-dihydro-5,6-dimethoxy-1H-isotndole] | 5.04 | – | – | 6.41 | – | – |
| COc1ccc(C(CCCCCCN2CCc3cc(OC)c(OC)cc3C2)Sc2ccc(C)cc2)cc1OC (stereo not drawn) [Example 50, 2-[7-(3,4-Dimethoxyphenyl)-7-[(4-methylphenyl)thio]-heptyl]-1,2,3,4-tetrahydro-6,7-dimethoxyisoquinoline] | 7.86 | 8.76 | 7.08 | 10.30 | 6.87 | – |
| COc1ccc(CC2c3cc(OC)c(OC)cc3CCN2CCCCCC(C#N)(Sc2ccc(C)cc2)c2ccc(OC)c(OC)c2)cc1OC (stereo not drawn) [Example 55, α-(3,4-Dimethoxyphenyl)-1-[(3,4-dimethoxyphenyl)-methyl]-3,4-dihydro-6,7-dimethoxy-α-[(4-methylphenyl)-thio]-2(1H)-isoquinolineheptanenitrile] | – | 12.20 | 12.37 | – | 7.15 | – |
| COc1ccc(C(CCCCCN2CCc3cc(OC)c(OC)cc3C2)SC2CCCCC2)cc1OC (stereo not drawn) [Example 61, 2-[6-(Cyclohexylthio)-6-(3,4-dimethoxyphenyl)hexyl]-1,2,3,4-tetrahydro-6,7-dimethoxyisoquinoline] | – | 8.66 | 6.86 | 8.88 | – | – |
| COc1ccc(C(C#N)(CCCCCN2CCc3cc(OC)c(OC)cc3C2)SC2CCCCC2)cc1OC (stereo not drawn) [Example 62, α-(Cyclohexylthio)-α-(3,4-dimethoxyphenyl)-3,4-dihydro6,7-dimethoxy-2(1H)-isoquinolineheptane nitrile] | – | 9.47 | 6.08 | 10.17 | – | toxicity remark (tox), Day 14 [2, 12]: tox; toxicity remark (tox), Day 21 [2, 12]: tox |
| COc1ccc(C(CCCCCN2CCc3cc(OC)c(OC)cc3C2)SC(C)(C)C)cc1OC (stereo not drawn) [Example 66, 2-[6-(3,4-Dimethoxyphenyl)-6[(1,1-dimethylethyl)thio]hexyl]-1,2,3,4-tetrahydro-6,7-dimethoxyisoquinoline] | – | – | 8.17 | – | 7.07 | – |
| COc1ccc(C(CCCCCCN2CCc3cc(OC)c(OC)c(OC)c3C2)Sc2ccc(C)cc2)cc1OC (stereo not drawn) [Example 67, 2-[7-(3,4-Dimethoxyphenyl)-7-[(4-methylphenyl)thio]-heptyl]-1,2,3,4-tetrahydro-6,7,8-trimethoxyisoquinoline] | – | 11.52 | 7.76 | 9.81 | 8.55 | – |
| COc1ccc(C(CCCCCCN2CCc3cc(OC)c(OC)cc3C2)Sc2ccc(C)cc2)cc1O (stereo not drawn) [Example 72, 5-[7-(3,4-Dihydro-6,7-dimethoxy-2(1H)-isoquinolinyl)-1[(4-methylphenyl)thio]heptyl]-2-methoxyphenol] | – | – | – | 9.58 | – | – |
| COc1cc2c(cc1OC)CN(CCCCCCC(Sc1ccc(C)cc1)c1ccc(OC)c(OCCn3ccnc3)c1)CC2 (stereo not drawn) [Example 74] | – | – | – | – | – | Relative Tumor Growth Day 21 ([2]; doxorubicin 8 mg/kg IV + compound 25 mg/kg/dose SC at -2 h and +2 h, listed as Ex-74): 9.11; Relative Tumor Growth Day 21 ([2]; doxorubicin 8 mg/kg IV + compound 50 mg/kg/dose SC at -2 h and +2 h, listed as Ex-74): 9.18; Relative Tumor Growth Day 21 ([2]; doxorubicin 8 mg/kg IV + compound […] SC at -2 h and +2 h, listed as Ex-74): 9.00 |
| COc1cc2c(cc1OC)CN(CCCCCCC(Sc1ccc(C)cc1)c1ccc(OC)c(OCCn3ccnc3)c1)CC2 (stereo not drawn) [Example 75, 1,2,3,4-Tetrahydro-2-[7-[3-[2-(1H-imidazol-1-yl)-ethoxy]-4-methoxyphenyl]-7-[(4-methylphenvl]thio]-heptyl-6,7-dimethoxyisoquinolinedihydrochloride] | – | – | – | – | – | Relative Tumor Growth Day 21 ([2]; doxorubicin 8 mg/kg IV + compound 25 mg/kg/dose SC at -2 h and +2 h, listed as Ex-75, dihydrochloride): 11.05; Relative Tumor Growth Day 21 ([2]; doxorubicin 8 mg/kg IV + compound 50 mg/kg/dose SC at -2 h and +2 h, listed as Ex-75, dihydrochloride): 9.12; Relative Tumor Growth Day 21 ([2]; doxorubicin 8 mg/kg IV + compound 100 mg/kg/dose SC at -2 h and +2 h, listed as Ex-75, dihydrochloride): 6.74; Relative Tumor Growth Day 21 ([2]; doxorubicin 8 mg/kg IV + compound 200 mg/kg/dose SC at -2 h and +2 h, listed as Ex-75, dihydrochloride): 7.70; Relative Tumor Growth Day 21 ([2]; doxorubicin 8 mg/kg IV + compound […] SC at -2 h and +2 h, listed as Ex-75, dihydrochloride): 14.21 |
| CCC(CCCCCN1CCc2cc(OC)c(OC)cc2C1)(Sc1ccc(C)cc1)c1ccc(OC)c(OC)c1 (stereo not drawn) [Example 78, 2-[6-(3,4-Dimethoxyphenyl)-6-[(4-methylphenyl)thio]-octyl]-1,2,3,4-tetrahydro-6,7-dimethoxyisoquinoline] | 10.14 | – | – | 10.27 | – | – |
| COc1ccc(C(C#N)(CCCCCN2Cc3cc(Cl)c(Cl)cc3C2)Sc2ccc(C)cc2)cc1OC (stereo not drawn) [Example 81] | – | – | – | 9.52 | – | – |
| COc1cc2c(cc1OC)CN(CCCCCC(Sc1ccc(C)cc1)c1ccc3c(c1)OCO3)CC2 (stereo not drawn) [Example 89] | 8.02 | 9.40 | 11.04 | 10.70 | 6.04 | – |
| COc1cc2c(cc1OC)CN(CCCCCC(Sc1ccc(C)cc1)c1ccc(OC(F)(F)F)cc1)CC2 (stereo not drawn) [Example 92, 1,2,3,4-Tetrahydro-6,7-dimethoxy-2-[6-[(4-methyl-phenyl]thio]-6-[trifluoromethoxy)phenyl]hexylisoquinoline] | 12.05 | 11.75 | 10.48 | 12.75 | 8.71 | – |
